Measurements published in patent US4820727A, “N-acyl-N-naphthoylglycines as aldose reductase inhibitors” (American Home Products Corporation, priority 1987, dated 1989).
Values belong to the compound of their own block, whether it stands above or below them.

Columns and labels:
[1] = system: Sciatic Nerve Polyol Accumulation; experiment: Two-Week Streptozocin-Diabetic Rat Model, % lowering of sciatic nerve polyol accumulation; assay type: in vivo, Sprague-Dawley rats; settings: gavage, 14 days
Text: A second in vivo model examined the effect of the compounds of the present invention on sorbitol accumulation in the tissues of 14-day streptozocin (STZ) (Upjohn) diabetic rats.
In each of the studies male Sprague-Dawley rats from Charles River Labs, Kingston, NY, weighing 200 to 250 g, were used. The animals were weighed and observed for 5 days prior to the start of the study.
In each study the rats were randomly assigned by weight into groups of 15 animals except for group I which contained 8 animals. The groups were treated as follows:
Group II: STZ, 110 mg/kg i.p.
Group IV: STZ, 110 mg/kg i.p. followed by various doses of a compound of the present invention given by gavage for 14 days, beginning on the day of induction of diabetes.
Following an overnight fast (water ad lib) the animals in groups II-IV were given by i.p. injection 110 mg STZ per kg body weight. The STZ was dissolved in cold citric acid, 0.03M, pH 4.5 and injected within 5 minutes of being dissolved. Control rats (group I) were injected with buffer only. One hour following the injection, standard laboratory chow (Rodent lab chow 5001, Purina) was placed in the cages.
Two days after STZ injection plasma glucose levels (from the tail vein) were determined following a 4 hour fast. Excluded from the study were animals whose plasma glucose was below 300 mg/dl. Control animals with plasma glucose levels greater than 200 mg/dl were also excluded.
On the morning of the 14th day following STZ injection the animals were fasted 4 hours prior to sacrificing by decapitation. The blood was collected into heparin containing tubes and placed on ice. Both lenses and sciatic nerves were removed immediately, weighed, frozen, and stored at -20° C. until analyzed for sorbitol. The RBCs were collected by centrifugation, the plasma was removed and the cells were washed once with 10 volumes of cold saline. The washed packed RBCs were divided into 1 mL aliquots, extracted with cold perchloric acid and the acid extracts were stored at -20° C. until analyzed for sorbitol.

[2] = system: dulcitol accumulation; experiment: Galactosemic rats, % lowering of dulcitol (galactitol) accumulation in vivo; parameters: species or system Sprague-Dawley rats; settings: for % Lowering dulcitol accumulation IN VIVO, D: diaphragm; for % Lowering dulcitol accumulation IN VIVO, D / % Lowering dulcitol accumulation IN VIVO, L: 4 days; for % Lowering dulcitol accumulation IN VIVO, L: lens
Text: Such experiments are exemplified hereinbelow after the listing of the following general comments pertaining to these experiments:
(a) Four or more groups of six male rats, 50-70 g, Sprague-Dawley strain, were used. The first group, the control group, was fed a mixture of laboratory chow (rodent Laboratory Chow, Purina) and glucose at 20% (w/w %) concentration. […] The test compound was either admixed to the diet or administered by gavage. In experiments involving compound administration in the diet, the average dose administered was calculated from the actual food intake of the animals in each group. The concentration of galactose in the diet of the treated groups was the same as that for the untreated galactosemic group.
(b) After four days, the animals were killed by decapitation. The eyeballs were removed and punctured with a razor blade; the freed lenses were rolled gently on filter paper and weighed. The sciatic nerves were dissected as completely as possible and weighed. Both tissues when frozen can be kept up to two weeks before being analyzed for galactitol.
Only two minor reagent changes were made: (a) the rinsing mixture was an aqueous 5% (w/v) trichloroacetic acid solution and (b) the stock solution was prepared by dissolving 25 mg of dulcitol in 100 mL of an aqueous trichloroacetic acid solution. [N.B.: For each experiment the average value found in the tissue from rats fed the glucose diet was subtracted from the individual values found in the corresponding tissue in galactose-fed rats to obtain the amount of polyol accumulated.]
The figures under L, N, and D represent the percentage decrease of galactitol accumulation in the tissues of the lens, sciatic nerve, and diaphragm, respectively, for treated rats as compared to untreated rats.

[3] = biological target: T1, aldose reductase (Bos taurus, UniProt P16116); experiment: In vitro aldose reductase inhibition (modified Hayman and Kinoshita procedure, enzyme from bovine lens); assay type: biochemical; settings: for inhibition at 0.04 µM: read-out: % Inhibition IN VITRO 4 × 10^-8 M; for inhibition at 10 µM: read-out: % Inhibition IN VITRO 10^-5 M; for inhibition at 1 µM: read-out: % Inhibition IN VITRO 10^-6 M; for inhibition at 0.1 µM: read-out: % Inhibition IN VITRO 10^-7 M
T1 construct: preparation of the enzyme from bovine lens; from tissue; host or cells: bovine lens
Text: In the present case the procedure of Hayman and Kinoshita was modified in that the final chromatography step was omitted in the preparation of the enzyme from bovine lens.

[4] = system: Sciatic Nerve Polyol Accumulation; experiment: Two-Week Streptozocin-Diabetic Rat Model, % lowering of sciatic nerve polyol accumulation; assay type: in vivo, Sprague-Dawley rats; settings: gavage, 14 days; remark: listed apart in the source
[5] = 15 mg/kg, N.S. = not significant
[6] = 5.2 mg/kg, N.S. = not significant
[7] = 27 mg/kg, N.S. = not significant

inhibition at 0.04 µM [3]: 59%
inhibition at 10 µM [3]: 99%
inhibition at 1 µM [3]: 95%
inhibition at 0.1 µM [3]: 86%
Structure (SMILES): COC(=O)N(CC(=O)O)C(=O)c1c(F)ccc2c(C(F)(F)F)c(OC)ccc12 [Example 1, N-[[2-fluoro-6-methoxy-5-(trifluoromethyl)-1-naphthalenyl]carbonyl]-N-(methoxycarbonyl)glycine]
% Lowering of Sciatic Nerve Polyol Accumulation, Sorbitol (%) ([1]; 2 mg/kg): 38%
% Lowering of Sciatic Nerve Polyol Accumulation, Sorbitol (%) ([1]; 5 mg/kg): 39%
% Lowering of Sciatic Nerve Polyol Accumulation, Sorbitol (%) ([1]; 10 mg/kg): 85%
% Lowering of Sciatic Nerve Polyol Accumulation, Sorbitol (%) ([1]; 15 mg/kg): 85%
results in the sciatic nerve compared with tolrestat ([2]; 10 mg/kg/day vs tolrestat at 9 mg/kg/day, sciatic nerve): comparable results
% Lowering dulcitol accumulation IN VIVO, D ([2]; 5 mg/kg): 52%
% Lowering dulcitol accumulation IN VIVO, D ([2]; 10 mg/kg): 62%
% Lowering dulcitol accumulation IN VIVO, L ([2]; 5 mg/kg, N.S. = not significant): N.S.
% Lowering dulcitol accumulation IN VIVO, L ([2]; 10 mg/kg, N.S. = not significant): N.S.
% Lowering dulcitol accumulation IN VIVO, L ([2]; 14 mg/kg, N.S. = not significant): N.S.
% Lowering dulcitol accumulation IN VIVO, L [2, 5]: N.S.
% Lowering of Sciatic Nerve Polyol Accumulation, Fructose (%) ([4]; 2 mg/kg): 22%
% Lowering of Sciatic Nerve Polyol Accumulation, Fructose (%) ([4]; 5 mg/kg): 36%
% Lowering of Sciatic Nerve Polyol Accumulation, Fructose (%) ([4]; 10 mg/kg): 72%
% Lowering of Sciatic Nerve Polyol Accumulation, Fructose (%) ([4]; 15 mg/kg): 86%

inhibition at 10 µM [3]: 2%
inhibition at 1 µM [3]: 0%
Structure (SMILES): COC(=O)N(CC(N)=O)C(=O)c1c(F)ccc2c(C(F)(F)F)c(OC)ccc12 [Example 2, [[[2-Fluoro-6-methoxy-5-(trifluoromethyl)-1-naphthalenyl]carbonyl](methoxycarbonyl)amino]acetamide]
% Lowering dulcitol accumulation IN VIVO, D [2, 6]: N.S.
% Lowering dulcitol accumulation IN VIVO, D ([2]; 10.4 mg/kg): 23%
% Lowering dulcitol accumulation IN VIVO, L [2, 6]: N.S.
% Lowering dulcitol accumulation IN VIVO, L ([2]; 10.4 mg/kg, N.S. = not significant): N.S.

inhibition at 0.04 µM [3]: 67%
inhibition at 10 µM [3]: 99%
inhibition at 1 µM [3]: 95%
inhibition at 0.1 µM [3]: 87%
Structure (SMILES): CCOC(=O)N(CC(=O)O)C(=O)c1c(F)ccc2c(C(F)(F)F)c(OC)ccc12 [Example 3, N-(Ethoxycarbonyl)-N-[[2-fluoro-6-methoxy-5-(trifluoromethyl)-1-naphthalenyl]carbonyl]glycine]
% Lowering dulcitol accumulation IN VIVO, D ([2]; 15 mg/kg): 59%
% Lowering dulcitol accumulation IN VIVO, D ([2]; 25 mg/kg): 65%
% Lowering dulcitol accumulation IN VIVO, L [2, 5]: N.S.
% Lowering dulcitol accumulation IN VIVO, L ([2]; 25 mg/kg, N.S. = not significant): N.S

Structure (SMILES): COC(=O)N(CC(=O)O)C(=O)c1c(Cl)ccc2c(C(F)(F)F)c(OC)ccc12 [Example 4, N-[[2-Chloro-6-methoxy-5-(trifluoromethyl)-1-naphthalenyl]carbonyl]-N-(methoxycarbonyl)glycine]
% Lowering dulcitol accumulation IN VIVO, D ([2]; 26 mg/kg): 68%
% Lowering dulcitol accumulation IN VIVO, L ([2]; 26 mg/kg, N.S. = not significant): N.S.
inhibition at 0.04 µM [3]: 57%
inhibition at 10 µM [3]: 98%
inhibition at 1 µM [3]: 95%
inhibition at 0.1 µM [3]: 85%

inhibition at 0.04 µM [3]: 54%
inhibition at 10 µM [3]: 97%
inhibition at 1 µM [3]: 92%
inhibition at 0.1 µM [3]: 77%
Structure (SMILES): COC(=O)N(CC(=O)O)C(=O)c1c(Br)ccc2c(C(F)(F)F)c(OC)ccc12 [Example 5, N-[[2-Bromo-6-methoxy-5-(trifluoromethyl)-1-naphthalenyl]carbonyl]-N-(methoxycarbonyl)glycine]
% Lowering dulcitol accumulation IN VIVO, D ([2]; 51 mg/kg): 62%
% Lowering dulcitol accumulation IN VIVO, L ([2]; 51 mg/kg, N.S. = not significant): N.S.

inhibition at 0.04 µM [3]: 56%
inhibition at 0.1 µM [3]: 83%
Structure (SMILES): COC(=O)N(CC(=O)O)C(=O)c1c(OCC(F)(F)F)ccc2c(C(F)(F)F)c(OC)ccc12 [Example 6, N-[[6-Methoxy-2-(2,2,2-trifluoroethoxy)-5-(trifluoromethyl)-1-naphthalenyl]carbonyl]-N-(methoxycarbonyl)glycine]
% Lowering dulcitol accumulation IN VIVO, D ([2]; 27 mg/kg): 49%
% Lowering dulcitol accumulation IN VIVO, L [2, 7]: N.S.

Structure (SMILES): CCOC(=O)N(CC(=O)O)C(=O)c1c(OCC(F)(F)F)ccc2c(C(F)(F)F)c(OC)ccc12 [Example 7, N-(Ethoxycarbonyl)-N-[[6-methoxy-2-(2,2,2-trifluoroethoxy)-5-(trifluoromethyl)-1-naphthalenyl]carbonyl]glycine]
% Lowering dulcitol accumulation IN VIVO, D ([2]; 27 mg/kg): 39%
% Lowering dulcitol accumulation IN VIVO, L [2, 7]: N.S.
inhibition at 0.04 µM [3]: 47%
inhibition at 10 µM [3]: 98%
inhibition at 1 µM [3]: 90%
inhibition at 0.1 µM [3]: 78%

inhibition at 0.04 µM [3]: 47%
inhibition at 0.1 µM [3]: 79%
Structure (SMILES): CCOC(=O)N(CC(=O)O)C(=O)c1c(Cl)ccc2c(C(F)(F)F)c(OC)ccc12 [Example 8, N-[[2-Chloro-6-methoxy-5-(trifluoromethyl)-1-naphthalenyl]carbonyl]-N-(ethoxycarbonyl)glycine]
% Lowering dulcitol accumulation IN VIVO, D ([2]; 50 mg/kg): 47%
% Lowering dulcitol accumulation IN VIVO, L ([2]; 50 mg/kg, N.S. = not significant): N.S.

Structure (SMILES): CCOC(=O)N(CC(=O)O)C(=O)c1c(Br)ccc2c(C(F)(F)F)c(OC)ccc12 [Example 9, N-[[2-Bromo-6-methoxy-5-(trifluoromethyl)-1-naphthalenyl]carbonyl]-N-(ethoxycarbonyl)glycine]
% Lowering dulcitol accumulation IN VIVO, D ([2]; 43 mg/kg): 27%
% Lowering dulcitol accumulation IN VIVO, L ([2]; 43 mg/kg, N.S. = not significant): N.S.
inhibition at 0.04 µM [3]: 52%
inhibition at 10 µM [3]: 98%
inhibition at 1 µM [3]: 93%
inhibition at 0.1 µM [3]: 76%

Structure (SMILES): COc1ccc2c(C(=S)N(C)CC(=O)O)cccc2c1C(F)(F)F [Tolrestat, N-[[6-methoxy-5-(trifluoromethyl)-1-naphthalenyl]thioxo-methyl]-N-methylglycine, reference compound]
% Lowering of Sciatic Nerve Polyol Accumulation, Sorbitol (%) ([1]; 6 mg/kg): 80%
% Lowering dulcitol accumulation IN VIVO, L ([2]; 9 mg/kg, N.S. = not significant): N.S.
% Lowering of Sciatic Nerve Polyol Accumulation, Fructose (%) ([4]; 6 mg/kg): 63%
